In PubChem BioAssay AID2772 (The Scripps Research Institute Molecular Screening Center, 2010) one finds IC50 data, which are given here for 54 molecules.

This test addresses Signal transducer and activator of transcription 1-alpha/beta (Homo sapiens) (UniProt P42224). Kind of test: STAT1 reporter inhibitors in fibroblasts, late-stage follow-up, cell-based, luminescence, NIH 3T3, dose response (AID 2772). Particulars: NIH 3T3 fibroblasts, STAT1 luciferase reporter. (Reporter assays use an easily measured gene product as a stand-in for the process of interest.)

Active and inactive are the calls of the source. No rule for the calls is given here.

Signal transducer and activator of transcription 1-alpha/beta (Homo sapiens), sequence (P42224 whole entry, looked up): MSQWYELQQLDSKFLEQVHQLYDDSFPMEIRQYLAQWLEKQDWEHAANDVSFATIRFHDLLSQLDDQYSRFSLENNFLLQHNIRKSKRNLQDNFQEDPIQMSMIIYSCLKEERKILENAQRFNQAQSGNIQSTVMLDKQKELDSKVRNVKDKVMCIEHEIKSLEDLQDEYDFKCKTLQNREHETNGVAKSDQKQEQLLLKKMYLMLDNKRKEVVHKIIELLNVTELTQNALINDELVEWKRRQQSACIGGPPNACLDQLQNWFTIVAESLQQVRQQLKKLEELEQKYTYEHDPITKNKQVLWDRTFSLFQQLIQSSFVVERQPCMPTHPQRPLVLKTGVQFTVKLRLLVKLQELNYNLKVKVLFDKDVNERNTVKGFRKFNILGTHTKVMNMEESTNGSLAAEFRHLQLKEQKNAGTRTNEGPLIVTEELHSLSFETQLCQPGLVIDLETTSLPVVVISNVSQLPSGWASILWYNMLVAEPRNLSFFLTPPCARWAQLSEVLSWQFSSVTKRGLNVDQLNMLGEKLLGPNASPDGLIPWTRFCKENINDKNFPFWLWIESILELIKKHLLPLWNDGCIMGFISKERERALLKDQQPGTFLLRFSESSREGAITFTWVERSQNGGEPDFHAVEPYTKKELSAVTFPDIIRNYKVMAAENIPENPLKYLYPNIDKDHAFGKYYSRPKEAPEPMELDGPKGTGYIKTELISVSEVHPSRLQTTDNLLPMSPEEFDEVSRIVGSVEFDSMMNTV

The IC50 is the concentration needed to halve the response being measured. On to `O=C(OCC1CCCCC1)c1nn(-c2ccccc2)c(=O)c2ccccc12`, for which the IC50 is > 55.7 µM (inactive).

`COc1cccc(NC(=O)C(c2ccccc2)N2CCN(S(=O)(=O)c3ccc(C)cc3)CC2)c1` (centres undefined): the IC50 result was “inactive”.

As to `O=C(O)c1nn(-c2ccc(F)cc2)c(=O)c2ccccc12`, the IC50 is > 55.7 µM (inactive).

As for `CCOC(=O)c1ccc(S(=O)(=O)N2CCN(C(C(=O)Nc3ccc(OC)c(Cl)c3)c3ccccc3)CC2)cc1` (centres undefined), the IC50 was > 55.7 µM (inactive).

As for `Cc1ccc2oc(=O)cc(CSc3nc(-c4ccccc4)c4ccccc4n3)c2c1`, the IC50 is > 55.7 µM (inactive).

In the case of `CCOc1ccc(-c2csc(Cn3c(CN4CCN(C)CC4)nc4ccccc4c3=O)n2)cc1`, the IC50 is > 18.6 µM (inactive).

As for `Cc1ccc(C)c(NC(=O)C(c2ccccc2)N2CCN(S(=O)(=O)c3ccccc3C#N)CC2)c1` (centres undefined), the IC50 is > 55.7 µM (inactive).

Regarding `Cc1ccc(-n2nc(C(=O)O)c3ccccc3c2=O)cc1Cl`, the IC50 entry is “inactive”.

As to `CNC(=O)c1nn(-c2ccc(F)cc2)c(=O)c2ccccc12`, the IC50 was > 55.7 µM (inactive).

Take `O=C(Nc1ccc(F)cc1)C(c1ccccc1)N1CCN(S(=O)(=O)c2ccccc2)CC1` (centres undefined): the IC50 was > 55.7 µM (inactive).

On to `O=C(Nc1ccc(F)cc1)C(c1ccccc1)N1CCN(C(=O)c2ccccc2)CC1` (centres undefined), for which the IC50 was > 55.7 µM (inactive).

Take `O=C1c2ccccc2N/C(=C\N2CCOCC2)N1Cc1nc(-c2ccccc2F)cs1`: the IC50 result is “inactive”.

Take `Cc1ccc(-n2nc(C(=O)O)c3ccccc3c2=O)cc1C`: the IC50 is > 55.7 µM (inactive).

In the case of `COc1ccc(N2CCN(C(=O)c3ccc(-n4c(=S)[nH]c5ccccc5c4=O)cc3)CC2)cc1`, the IC50 was > 55.7 µM (inactive).

In the case of `CN(C)Cc1nc2ccccc2c(=O)n1Cc1nc(-c2cccc([N+](=O)[O-])c2)cs1`, the IC50 is > 18.6 µM (inactive).

As to `N#Cc1ccccc1S(=O)(=O)N1CCN(C(C(=O)Nc2ccc(F)cc2)c2ccccc2)CC1` (centres undefined), the IC50 was > 55.7 µM (inactive).

For the molecule `CN(C)Cc1nc2ccccc2c(=O)n1Cc1nc(C(C)(C)C)cs1`, the IC50 result is “inactive”.

In the case of `CN1CCN(C(=O)c2ccc(-n3c(=S)[nH]c4ccccc4c3=O)cc2)CC1`, the IC50 is > 55.7 µM (inactive).

Regarding `CCOc1ccc2oc(=O)cc(CSc3nc4ccccc4c(=O)[nH]3)c2c1`, the IC50 is > 55.7 µM (inactive).

In the case of `COC(=O)c1nn(-c2ccc(F)cc2)c(=O)c2ccccc12`, the IC50 was > 55.7 µM (inactive).

On to `O=C(c1ccc(-n2c(=S)[nH]c3ccccc3c2=O)cc1)N1CCN(C(=O)c2ccco2)CC1`, for which the IC50 is > 55.7 µM (inactive).

As for `O=C(c1ccc(-n2c(=S)[nH]c3ccccc3c2=O)cc1)N1CCN(c2ccc(F)cc2)CC1`, the IC50 is > 55.7 µM (inactive).

For `CCOC(=O)N1CCN(C(=O)c2ccc(-n3c(=S)[nH]c4ccccc4c3=O)cc2)CC1`, the IC50 entry was “inactive”.

Consider `Cc1cc2oc(=O)cc(CSc3nc4ccccc4c(=O)[nH]3)c2cc1Cl`, for which the IC50 is > 55.7 µM (inactive).

For `CCC(C)c1ccc(-c2csc(CN3C(=O)c4ccccc4N/C3=C\N3CCN(C)CC3)n2)cc1` (centres undefined), the IC50 is > 18.6 µM (inactive).

As to `CC(C(=O)Nc1ccccc1)N1CCN(S(=O)(=O)c2ccccc2)CC1` (centres undefined), the IC50 was > 55.7 µM (inactive).

`N#Cc1ccc(S(=O)(=O)N2CCN(C(C(=O)Nc3ccc(F)cc3)c3ccccc3)CC2)cc1` (centres undefined): the IC50 is > 55.7 µM (inactive).

Consider `O=C(c1ccc(-n2c(=S)[nH]c3ccccc3c2=O)cc1)N1CCN(C2CCCCC2)CC1`, for which the IC50 is > 55.7 µM (inactive).

Regarding `CN1CCN(Cc2nc3ccccc3c(=O)n2Cc2nc(-c3cccc([N+](=O)[O-])c3)cs2)CC1`, the IC50 entry is “inactive”.

With `COc1cc2c(cc1OC)C(=O)N(Cc1coc(-c3ccccc3)n1)C(=CN1CCOCC1)N2`, the IC50 was > 55.7 µM (inactive).

Take `CN1CCN(C=C2Nc3ccccc3C(=O)N2Cc2nc(C34CC5CC(CC(C5)C3)C4)cs2)CC1`: the IC50 is > 55.7 µM (inactive).

In the case of `C=C1NN(c2ccc(C(=O)N3CCC(Cc4ccccc4)CC3)cc2)C(=O)c2ccccc21`, the IC50 is > 55.7 µM (inactive).

Take `O=C1c2ccccc2N/C(=C\N2CCOCC2)N1Cc1nc(-c2ccc(F)c(F)c2)cs1`: the IC50 entry was “inactive”.

As to `CN(Cc1ccccc1N1CCCC1)C(=O)c1nn(-c2ccccc2)c(=O)c2ccccc12`, the IC50 was > 55.7 µM (inactive).

For the molecule `CCOc1ccccc1NC(=O)C(c1ccccc1)N1CCN(S(=O)(=O)c2ccc(F)c(F)c2F)CC1` (centres undefined), the IC50 is > 55.7 µM (inactive).

Regarding `CN(C)C(=O)c1nn(-c2ccc(F)cc2)c(=O)c2ccccc12`, the IC50 is > 55.7 µM (inactive).

Consider `O=C(Nc1ccc(F)cc1)C(c1ccccc1)N1CCN(S(=O)(=O)c2ccc3c(c2)OCCO3)CC1` (centres undefined), for which the IC50 was > 55.7 µM (inactive).

In the case of `Cc1ccc(NC(=O)C(c2ccccc2)N2CCN(S(=O)(=O)c3ccccc3)CC2)cc1` (centres undefined), the IC50 is > 55.7 µM (inactive).

In the case of `O=c1cc(CSc2nc3ccccc3c(=O)[nH]2)c2ccc(O)cc2o1`, the IC50 result was “inactive”.

In the case of `CCC(C(=O)Nc1ccccc1)N1CCN(S(=O)(=O)c2ccc3c(c2)CCC3)CC1` (centres undefined), the IC50 was > 55.7 µM (inactive).

For `CN1CCN(Cc2nc3ccccc3c(=O)n2Cc2nc(-c3ccccc3F)cs2)CC1`, the IC50 result was “inactive”.

Regarding `COc1ccc(C)cc1NC(=O)C(c1ccccc1)N1CCN(S(=O)(=O)c2ccc(F)cc2)CC1` (centres undefined), the IC50 was > 55.7 µM (inactive).

In the case of `CCOC(=O)Nc1ccc2c(CSc3nc4ccccc4c(=O)[nH]3)cc(=O)oc2c1`, the IC50 was > 55.7 µM (inactive).

Regarding `O=c1c2ccccc2nc(CN2CCOCC2)n1Cc1nc(-c2ccc[nH]2)cs1`, the IC50 entry was “inactive”.

For the molecule `COc1cc2c(cc1OC)C(=O)N(Cc1nnc(-c3ccc(Cl)cc3)o1)C(=CN1CCOCC1)N2`, the IC50 is > 55.7 µM (inactive).

With `NC(=O)c1ccc(S(=O)(=O)N2CCN(C(C(=O)Nc3ccc(F)cc3)c3ccccc3)CC2)cc1` (centres undefined), the IC50 is > 55.7 µM (inactive).

Consider `O=C(Nc1ccc(Cl)c(C(F)(F)F)c1)C(c1ccccc1)N1CCN(S(=O)(=O)c2ccccc2)CC1` (centres undefined), for which the IC50 is > 55.7 µM (inactive).

In the case of `Cc1ccc(C)c(S(=O)(=O)N2CCN(C(C(=O)Nc3ccc(F)cc3)c3ccccc3)CC2)c1` (centres undefined), the IC50 is > 55.7 µM (inactive).

As for `O=C(Nc1ccc(F)cc1)C(c1ccccc1)N1CCN(S(=O)(=O)c2ccc3ccccc3c2)CC1` (centres undefined), the IC50 was > 55.7 µM (inactive).

Consider `O=C(c1ccc(-n2c(=S)[nH]c3ccccc3c2=O)cc1)N1CCN(c2ccccc2)CC1`, for which the IC50 was > 55.7 µM (inactive).

In the case of `CC(=O)c1ccc(S(=O)(=O)N2CCN(C(C(=O)Nc3ccc(C)cc3)c3ccccc3)CC2)cc1` (centres undefined), the IC50 is > 55.7 µM (inactive).

In the case of `COc1cc2c(cc1OC)C(=O)N(Cc1cc(-c3ccccc3OC)no1)C(=CN1CCOCC1)N2`, the IC50 is > 55.7 µM (inactive).

For the molecule `COc1cccc(-c2csc(Cn3c(CN4CCOCC4)nc4ccccc4c3=O)n2)c1`, the IC50 entry was “inactive”.

As to `CC(C(=O)Nc1ccc(F)c(F)c1)N1CCN(S(=O)(=O)c2ccc(C(F)(F)F)cc2)CC1` (centres undefined), the IC50 was > 55.7 µM (inactive).
